These are literature values, as cited in patent publication US20240016938A1, “METHODS FOR INCREASING THE BIOAVAILABILITY OF NUCLEOSIDE MEDICINAL AGENTS” (ZOGENIX MDS, INC., priority 2022, published 2024).

The conditions of this data set: 600-mg oral dose; food intake immediately before oral dosing; cited from earlier work.

As to `Cc1cn([C@@H]2C[C@@H](O)[C@H](CO)O2)c(=O)[nH]c1=O` [telbivudine, 3-L-2-deoxythymidine], the “absorption as measured by Cmax, Tmax, AUC(0-t), and AUC(0-infinity), fed vs fasting” value is listed as “not altered by food intake”.
